This test concerns the target T1, SAMHD1 (Homo sapiens, UniProt Q9Y3Z3).
T1 construct: recombinant SAMHD1 with N-terminal GST tag
Description: TLC-based [γ-32P]-dTTP triphosphohydrolase kinetics; HPLC dGTP hydrolysis assay. In kind it is biochemical.

T1 sequence (Q9Y3Z3 whole entry): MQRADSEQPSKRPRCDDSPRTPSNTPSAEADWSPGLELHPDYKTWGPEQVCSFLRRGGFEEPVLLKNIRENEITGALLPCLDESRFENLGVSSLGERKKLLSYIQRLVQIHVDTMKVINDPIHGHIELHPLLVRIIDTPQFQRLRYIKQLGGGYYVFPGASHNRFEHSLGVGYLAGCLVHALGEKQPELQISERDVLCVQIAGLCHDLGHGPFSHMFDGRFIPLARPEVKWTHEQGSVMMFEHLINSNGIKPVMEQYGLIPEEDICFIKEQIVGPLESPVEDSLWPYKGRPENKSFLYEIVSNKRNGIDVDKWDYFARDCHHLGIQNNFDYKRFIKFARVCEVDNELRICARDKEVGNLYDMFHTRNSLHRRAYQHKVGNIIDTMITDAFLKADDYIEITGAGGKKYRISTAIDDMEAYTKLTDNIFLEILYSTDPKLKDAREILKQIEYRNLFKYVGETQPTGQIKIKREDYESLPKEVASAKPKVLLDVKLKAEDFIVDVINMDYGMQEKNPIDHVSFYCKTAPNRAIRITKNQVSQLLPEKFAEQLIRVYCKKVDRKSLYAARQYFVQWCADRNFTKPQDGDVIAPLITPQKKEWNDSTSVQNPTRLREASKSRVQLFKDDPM

As for `C[C@H]1[C@H](O)[C@@H](COP(=O)(O)OP(=O)(O)OP(=O)(O)O)O[C@H]1n1ccc(=O)[nH]c1=O` [SMDU-TP], the Ki is 256 ± 70 µM.

The values are drawn from publication PMC5207538, “Substrates and Inhibitors of SAMHD1” (PLoS ONE, 2017).
